Results as given in patent US10792289B2 (Horizon Orphan LLC, priority 2009, dated 2020).
Converted amounts (≈) assume the structure as drawn. Like-named read-outs stand apart in the source and are kept apart here.

Assays:
stable CF patients [1] = assay: Phase 2 study: CFQ-R questionnaire; assay type: in vivo, human; conditions: for CFQ-R respiratory, mean change from baseline: MITT, Baseline to Day 28
Method: (§1) The following dosage regimens (as nebulizer loaded doses) were evaluated: 120 mg QD (daily); 240 mg QD (daily); and 240 mg BID (twice daily).
Patients were assessed on Day 1, 7, 14, and 28, and then up to 28 days after completion of study drug, namely, Days 42 and 56. The end of the study was defined as the last visit of the last patient.
Efficacy was evaluated by microbiologic assessment of sputum samples, time to need for anti-pseudomonal antimicrobials, the Cystic Fibrosis Questionaire-Revised (CFQ-R), and pulmonary function tests. […] Pair-wise comparisons between all the treatment arms were conducted as secondary analyses.
Patients completed the CFQ-R questionnaire with domains that included: respiratory, body image, digestion, eating, emotion, health perception, physical, role/school, social, treatment burden, vitality, and weight.

stable CF patients [2] = assay: Phase 2 study: time to need for anti-pseudomonal antimicrobials; assay type: in vivo, human; conditions: for Patients Requiring Anti-Pseudomonal Antimicrobials: EE population; for Number (%) of Patients Requiring Anti-Pseudomonal Antimicrobials: MITT population
Method: as §1
Efficacy endpoints including clinical endpoints, pulmonary function tests, and additional microbiological parameters were assessed as change from Day 1 to subsequent visits where the endpoint data was collected. Time to need for intravenous/oral/inhaled anti-pseudomonal antimicrobials were assessed from Day 1 until final visit using survival analysis. The primary population for efficacy analysis was the EE population, but efficacy endpoints were also analyzed using the MITT population.
Time to administration of intravenous/oral/inhaled anti-pseudomonal antimicrobials from Day 1 until Final visit was measured for patients with at least one of the following: decreased exercise tolerance, increased cough, increased sputum/chest congestion, and decreased appetite. The proportion of patients requiring anti-pseudomonal antimicrobials (inhaled or systemic) over time was analyzed using a Cox proportional hazards model.

B. cepacia = assay: Levofloxacin MIC against B. cepacia; assay type: cell-based; conditions: Burkholderia cepacia
[3] = MITT population, 240 mg BID vs Placebo, baseline to visit 4
[4] = MITT population, 240 mg BID, baseline to visit 4
[5] = MITT population, Combined 240 mg QD and BID

C[C@H]1COc2c(N3CCN(C)CC3)c(F)cc3c(=O)c(C(=O)O)cn1c23 [Levofloxacin, levofloxacin]
CFQ-R Body Image, LS Mean Difference (stable CF patients [1]; [3]): −0.25
CFQ-R Digestion, LS Mean Difference (stable CF patients [1]; [3]): 2.46
CFQ-R Eating, LS Mean Difference (stable CF patients [1]; [3]): 5.70
CFQ-R Emotion, LS Mean Difference (stable CF patients [1]; [3]): −0.09
CFQ-R Health Perception, LS Mean Difference (stable CF patients [1]; [3]): 2.58
CFQ-R Physical, LS Mean Difference (stable CF patients [1]; [3]): 5.94
CFQ-R Respiratory, LS Mean Difference (stable CF patients [1]; [3]): 4.50
CFQ-R Role/School, LS Mean Difference (stable CF patients [1]; [3]): −0.53
CFQ-R Social, LS Mean Difference (stable CF patients [1]; [3]): 2.37
CFQ-R Treatment Burden, LS Mean Difference (stable CF patients [1]; [3]): 0.06
CFQ-R Vitality, LS Mean Difference (stable CF patients [1]; [3]): 3.11
CFQ-R Weight, LS Mean Difference (stable CF patients [1]; [3]): 5.4
CFQ-R Body Image, LS Mean Change from Baseline (stable CF patients [1]; [4]): 0.34
CFQ-R Digestion, LS Mean Change from Baseline (stable CF patients [1]; [4]): 1.11
CFQ-R Eating, LS Mean Change from Baseline (stable CF patients [1]; [4]): 2.41
CFQ-R Emotion, LS Mean Change from Baseline (stable CF patients [1]; [4]): 2.22
CFQ-R Health Perception, LS Mean Change from Baseline (stable CF patients [1]; [4]): 0.52
CFQ-R Physical, LS Mean Change from Baseline (stable CF patients [1]; [4]): 3.14
CFQ-R Respiratory, LS Mean Change from Baseline (stable CF patients [1]; [4]): 4.06
CFQ-R Role/School, LS Mean Change from Baseline (stable CF patients [1]; [4]): −1.94
CFQ-R Social, LS Mean Change from Baseline (stable CF patients [1]; [4]): 0.69
CFQ-R Treatment Burden, LS Mean Change from Baseline (stable CF patients [1]; [4]): −0.93
CFQ-R Vitality, LS Mean Change from Baseline (stable CF patients [1]; [4]): 1.23
CFQ-R Weight, LS Mean Change from Baseline (stable CF patients [1]; [4]): 10.06
Respiratory domain of CFQ-R, Change from Baseline to Day 14, Mean (stable CF patients [1]; MITT population, 240 mg QD): 1.4
Respiratory domain of CFQ-R, Change from Baseline to Day 14, Median (stable CF patients [1]; MITT population, 240 mg QD): 0.0
Respiratory domain of CFQ-R, Change from Baseline to Day 28, Mean (stable CF patients [1]; MITT population, 240 mg QD): 0.3
Respiratory domain of CFQ-R, Change from Baseline to Day 28, Median (stable CF patients [1]; MITT population, 240 mg QD): 0.0
Respiratory domain of CFQ-R, Day 1, Mean (stable CF patients [1]; MITT population, 240 mg QD): 61.3
Respiratory domain of CFQ-R, Day 1, Median (stable CF patients [1]; MITT population, 240 mg QD): 61.1
Respiratory domain of CFQ-R, Day 14, Mean (stable CF patients [1]; MITT population, 240 mg QD): 63.0
Respiratory domain of CFQ-R, Day 14, Median (stable CF patients [1]; MITT population, 240 mg QD): 66.7
Respiratory domain of CFQ-R, Day 28, Mean (stable CF patients [1]; MITT population, 240 mg QD): 61.6
Respiratory domain of CFQ-R, Day 28, Median (stable CF patients [1]; MITT population, 240 mg QD): 66.7
Respiratory domain of CFQ-R, Change from Baseline to Day 14, Mean (stable CF patients [1]; [5]): 4.5
Respiratory domain of CFQ-R, Change from Baseline to Day 14, Median (stable CF patients [1]; [5]): 5.5
Respiratory domain of CFQ-R, Change from Baseline to Day 28, Mean (stable CF patients [1]; [5]): 1.7
Respiratory domain of CFQ-R, Change from Baseline to Day 28, Median (stable CF patients [1]; [5]): 0.0
Respiratory domain of CFQ-R, Day 1, Mean (stable CF patients [1]; [5]): 60.9
Respiratory domain of CFQ-R, Day 1, Median (stable CF patients [1]; [5]): 61.1
Respiratory domain of CFQ-R, Day 14, Mean (stable CF patients [1]; [5]): 65.8
Respiratory domain of CFQ-R, Day 14, Median (stable CF patients [1]; [5]): 69.4
Respiratory domain of CFQ-R, Day 28, Mean (stable CF patients [1]; [5]): 63.0
Respiratory domain of CFQ-R, Day 28, Median (stable CF patients [1]; [5]): 66.7
CFQ-R respiratory, mean change from baseline (stable CF patients [1]; 120 mg QD): 0.3 units
CFQ-R respiratory, mean change from baseline (stable CF patients [1]; 240 mg BID): 1.7 units
CFQ-R respiratory, mean change from baseline (stable CF patients [1]; 240 mg QD): 3.0 units
Patients Requiring Anti-Pseudomonal Antimicrobials (stable CF patients [2]; 120 mg QD): 20.0%
Patients Requiring Anti-Pseudomonal Antimicrobials (stable CF patients [2]; 240 mg BID): 20.6%
Patients Requiring Anti-Pseudomonal Antimicrobials (stable CF patients [2]; 240 mg QD): 25.7%
Patients Requiring Anti-Pseudomonal Antimicrobials (stable CF patients [2]; Combined 240 mg QD and BID): 23.2%
Number (%) of Patients Requiring Anti-Pseudomonal Antimicrobials (stable CF patients [2]; 120 mg QD): 18.4%
Number (%) of Patients Requiring Anti-Pseudomonal Antimicrobials (stable CF patients [2]; 240 mg BID): 20.5%
Number (%) of Patients Requiring Anti-Pseudomonal Antimicrobials (stable CF patients [2]; 240 mg QD): 27.0%
Number (%) of Patients Requiring Anti-Pseudomonal Antimicrobials (stable CF patients [2]; Combined 240 mg QD and BID): 23.7%
MIC (B. cepacia): > 128 µg/mL
MIC (B. cepacia; five strains tested in mouse model, read-out: MICs of five B. cepacia strains): 0.25 to 8 µg/mL (≈ 0.692 to 22.1 µM)
MIC (B. cepacia; strain BC1012, read-out: MIC): 4 µg/mL (≈ 11.1 µM)
MIC (B. cepacia; strain BC1013, read-out: MIC): 0.25 µg/mL (≈ 0.692 µM)
MIC (B. cepacia; strain BC1014, read-out: MIC): 1 µg/mL (≈ 2.77 µM)
MIC (B. cepacia; strain BC1020, read-out: MIC): 8 µg/mL (≈ 22.1 µM)
MIC (B. cepacia; strain BC1021, read-out: MIC): 8 µg/mL (≈ 22.1 µM)
